Test results: PubChem BioAssay AID248 (DTP/NCI, 2004)
Values joined by “and” are separate entries in the source; they are usually repeats but may differ in a detail not shown here. Equal entries are not always repeated. Inconclusive results and toxic doses are left out. Rule as the data show it: active = T/C of 150% or more; inactive = T/C below 125%.

System: L1210 leukemia ip in BDF1 mice, survival T/C
Test: NCI In Vivo Anticancer Drug Screen. Data for tumor model L1210 Leukemia (intraperitoneal) in B6D2F1 (BDF1) mice
Conditions: endpoint: mean survival time, higher = longer survival
Procedure, shortened: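 Survival endpoint. Drug-treated group vs vehicle group, expressed as T divided by C. Tumor passaged by transplantation.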

[1] = dose: 100.0 mg/kg/injection, schedule: Q04DX003 (ip), vehicle: Klucel (hydroxypropylcellulose) (HPC)
[2] = dose: 200.0 mg/kg/injection, schedule: Q04DX003 (ip), vehicle: Klucel (hydroxypropylcellulose) (HPC)
[3] = dose: 50.0 mg/kg/injection, schedule: Q01DX009 (ip), vehicle: saline with Tween-80
[4] = dose: 100.0 mg/kg/injection, schedule: Q01DX009 (ip), vehicle: saline with Tween-80
[5] = dose: 200.0 mg/kg/injection, schedule: Q01DX009 (ip), vehicle: saline with Tween-80
[6] = dose: 50.0 mg/kg/injection, schedule: Q01DX001 (ip), vehicle: carboxymethylcellulose (CMC)
[7] = dose: 100.0 mg/kg/injection, schedule: Q01DX001 (ip), vehicle: carboxymethylcellulose (CMC)
[8] = dose: 200.0 mg/kg/injection, schedule: Q01DX001 (ip), vehicle: carboxymethylcellulose (CMC)
[9] = dose: 400.0 mg/kg/injection, schedule: Q01DX001 (ip), vehicle: carboxymethylcellulose (CMC)
[10] = dose: 25.0 mg/kg/injection, schedule: Q01DX009 (ip), vehicle: saline with Tween-80
[11] = dose: 100.0 mg/kg/injection, schedule: Q04DX003 (ip), vehicle: saline with Tween-80
[12] = dose: 200.0 mg/kg/injection, schedule: Q04DX003 (ip), vehicle: saline with Tween-80
[13] = dose: 400.0 mg/kg/injection, schedule: Q04DX003 (ip), vehicle: saline with Tween-80

Measured: T/C

CCCCNc1nc(SC)nc2nc[nH]c12
inactive: [1] 95 % of control | [2] 96 % of control | dose: 400.0 mg/kg/injection, schedule: Q04DX003 (ip), vehicle: Klucel (hydroxypropylcellulose) (HPC) 91 % of control

OC(c1ccccc1)C1CCCC1 (stereo unspecified)
inactive: [3] 90 % of control | [4] 93 % of control | [5] 90 % of control

O=C(NCCCN1CC1)C(=O)Nc1ccccn1
inactive: [1] 102 % of control | [2] 86 % of control

CCn1cnc2cc(N=Cc3ccc(N(CCCl)CCCl)cc3Cl)ccc21
inactive: dose: 100.0 mg/kg/injection, schedule: Q04DX002 (ip), vehicle: Klucel (hydroxypropylcellulose) (HPC) 117 % of control | dose: 200.0 mg/kg/injection, schedule: Q04DX002 (ip), vehicle: Klucel (hydroxypropylcellulose) (HPC) 102 % of control | dose: 400.0 mg/kg/injection, schedule: Q04DX002 (ip), vehicle: Klucel (hydroxypropylcellulose) (HPC) 98 % of control

Cn1c(N)c(C(=O)CCCc2ccc(N(CCCl)CCCl)cc2)c(=O)n(C)c1=O
inactive: [6] 102 % of control | [7] 107 % of control | [8] 105 % of control | [9] 102 % of control

CCSc1ccc2c(cc1=O)C(NC(C)=O)CCc1cc(OC)c(OC)c(OC)c1-2 (stereo unspecified)
inactive: dose: 25.0 mg/kg/injection, schedule: Q04DX002 (ip), vehicle: Klucel (hydroxypropylcellulose) (HPC) 105 % of control | dose: 50.0 mg/kg/injection, schedule: Q04DX002 (ip), vehicle: Klucel (hydroxypropylcellulose) (HPC) 102 % of control

O=c1c(N=Nc2ccc(Cl)cc2)c(O)n(-c2ccc(Br)cc2)c(=S)n1-c1ccccc1
inactive: dose: 50.0 mg/kg/injection, schedule: Q01DX001 (ip), vehicle: Klucel (hydroxypropylcellulose) (HPC) 97 % of control | dose: 100.0 mg/kg/injection, schedule: Q01DX001 (ip), vehicle: Klucel (hydroxypropylcellulose) (HPC) 101 % of control | dose: 200.0 mg/kg/injection, schedule: Q01DX001 (ip), vehicle: Klucel (hydroxypropylcellulose) (HPC) 97 % of control

CCCCCCCCCCCCCCCCc1ccc(O)cc1O
inactive: dose: 12.5 mg/kg/injection, schedule: Q04DX003 (ip), vehicle: Klucel (hydroxypropylcellulose) (HPC) 103 % of control | [10] 100 % of control | dose: 25.0 mg/kg/injection, schedule: Q04DX003 (ip), vehicle: Klucel (hydroxypropylcellulose) (HPC) 95 % of control | [3] 105 % of control | dose: 50.0 mg/kg/injection, schedule: Q04DX003 (ip), vehicle: Klucel (hydroxypropylcellulose) (HPC) 95 % of control | [4] 95 % of control | [11] 94 % of control

CCOC(Cl)CCl (stereo unspecified)
inactive: dose: 6.25 mg/kg/injection, schedule: Q01DX009 (ip), vehicle: saline with Tween-80 106 % of control | dose: 12.5 mg/kg/injection, schedule: Q01DX001 (ip), vehicle: saline with Tween-80 97 % of control | dose: 12.5 mg/kg/injection, schedule: Q01DX009 (ip), vehicle: saline with Tween-80 100 % of control | dose: 25.0 mg/kg/injection, schedule: Q01DX001 (ip), vehicle: saline with Tween-80 97 % of control | [10] 108 % of control | dose: 50.0 mg/kg/injection, schedule: Q01DX001 (ip), vehicle: saline with Tween-80 93 % of control and 105 % of control | [3] 101 % of control

CCOc1ccccc1/C=C1\C=Nc2ccccc21
inactive: dose: 50.0 mg/kg/injection, schedule: Q01DX009 (ip), vehicle: carboxymethylcellulose (CMC) 92 % of control and 101 % of control | dose: 50.0 mg/kg/injection, schedule: Q04DX003 (ip), vehicle: carboxymethylcellulose (CMC) 96 % of control | dose: 100.0 mg/kg/injection, schedule: Q01DX009 (ip), vehicle: carboxymethylcellulose (CMC) 92 % of control and 93 % of control | dose: 100.0 mg/kg/injection, schedule: Q04DX002 (ip), vehicle: carboxymethylcellulose (CMC) 96 % of control and 99 % of control | dose: 100.0 mg/kg/injection, schedule: Q04DX003 (ip), vehicle: carboxymethylcellulose (CMC) 98 % of control | dose: 200.0 mg/kg/injection, schedule: Q01DX009 (ip), vehicle: carboxymethylcellulose (CMC) 89 % of control and 90 % of control | dose: 200.0 mg/kg/injection, schedule: Q04DX002 (ip), vehicle: carboxymethylcellulose (CMC) 89 % of control and 91 % of control | dose: 200.0 mg/kg/injection, schedule: Q04DX003 (ip), vehicle: carboxymethylcellulose (CMC) 100 % of control | dose: 400.0 mg/kg/injection, schedule: Q04DX002 (ip), vehicle: carboxymethylcellulose (CMC) 89 % of control

Cc1cc(Cc2cc(C)cc(C(C)(C)C)c2O)c(O)c(Cc2cc(C)cc(C(C)(C)C)c2O)c1
inactive: dose: 100.0 mg/kg/injection, schedule: Q01DX009 (ip), vehicle: gum acacia 97 % of control | dose: 100.0 mg/kg/injection, schedule: Q04DX003 (ip), vehicle: gum acacia 91 % of control | dose: 200.0 mg/kg/injection, schedule: Q01DX009 (ip), vehicle: gum acacia 96 % of control | dose: 200.0 mg/kg/injection, schedule: Q04DX003 (ip), vehicle: gum acacia 96 % of control | dose: 400.0 mg/kg/injection, schedule: Q01DX009 (ip), vehicle: gum acacia 94 % of control | dose: 400.0 mg/kg/injection, schedule: Q04DX003 (ip), vehicle: gum acacia 96 % of control

O=[N+]([O-])c1cc[n+]([O-])c(Br)c1
inactive: [4] 98 % of control | [11] 108 % of control | [5] 103 % of control | [12] 101 % of control | dose: 400.0 mg/kg/injection, schedule: Q01DX009 (ip), vehicle: saline with Tween-80 97 % of control | [13] 93 % of control

COc1ccc(C=Nc2ccc([N+](=O)[O-])cc2O)cc1
inactive: [7] 96 % of control | [8] 94 % of control | [9] 90 % of control

Cc1[nH]c(=O)[nH]c(=O)c1CN1CCOCC1
inactive: [11] 102 % of control | [12] 113 % of control | [13] 100 % of control

CCCSc1ncnc2nc[nH]c12
inactive: dose: 31.3 mg/kg/injection, schedule: Q01DX009 (ip), vehicle: saline 93 % of control and 100 % of control | dose: 62.5 mg/kg/injection, schedule: Q01DX009 (ip), vehicle: saline 97 % of control and 121 % of control | dose: 125.0 mg/kg/injection, schedule: Q01DX009 (ip), vehicle: saline 121 % of control | dose: 250.0 mg/kg/injection, schedule: Q01DX009 (ip), vehicle: saline 100 % of control

COC1OC(COC(c2ccccc2)(c2ccccc2)c2ccccc2)C2SC12 (stereo unspecified)
inactive: [6] 102 % of control | [7] 107 % of control | [8] 100 % of control | [9] 96 % of control

CCOC(=O)Nc1cc2[nH]cnc2c(NC(=O)OCC)n1
inactive: dose: 75.0 mg/kg/injection, schedule: Q01DX001 (ip), vehicle: saline 95 % of control | dose: 150.0 mg/kg/injection, schedule: Q01DX001 (ip), vehicle: saline 101 % of control | dose: 300.0 mg/kg/injection, schedule: Q01DX001 (ip), vehicle: saline 92 % of control

CC(=O)OCC1C(OC(C)=O)C(OC(C)=O)C(OC(C)=O)N1C(C)=O (stereo unspecified)
inactive: dose: 50.0 mg/kg/injection, schedule: Q01DX001 (ip), vehicle: saline 98 % of control | dose: 100.0 mg/kg/injection, schedule: Q01DX001 (ip), vehicle: saline 95 % of control | dose: 200.0 mg/kg/injection, schedule: Q01DX001 (ip), vehicle: saline 98 % of control | dose: 400.0 mg/kg/injection, schedule: Q01DX001 (ip), vehicle: saline 98 % of control
